In the assay the target is human GPR40 (Homo sapiens, UniProt O14842). Briefly: Inositol Phosphate Turnover (IP1) Assay 2. Also noted: expressed in transfected cells. It is filed as cell-based. How it is done:
Human and mouse GPR40 stable cell-lines were generated in CHO cells stably expressing NFAT BLA (Beta-lactamase). A human GPR40 stable cell-line was generated in HEK cells stably expressing the aequorin expressing reporter. The expression plasmids were transfected using lipofectamine (Life Technologies) following manufacturer's instructions. Stable cell-lines were generated following drug selection.
The assay is performed in 384-well format. HEK cells stably expressing human GPR40 are plated at 15,000 cells per well in growth medium (DMEM/10% fetal calf serum). Cell plates are then incubated 16 hours at 37 degrees in a 5% CO2 incubator.
Measurement of Inositol Phosphate Turnover (IP1) is performed using the CisBio IP-One kit (Part number 62IPAPEB). After the 16 hour incubation, the cells are washed with HEPES buffer and 10 ul of stimulation buffer (prepared as described in the kit) is added to each well. In a separate plate, compounds are diluted in DMSO (400-fold over the final concentration in the assay well) and 25 nl is acoustically transferred to the appropriate well in the assay cell plate. The plates are then incubated for 60 minutes at 37 degrees. 10 ul of detection buffer (also prepared as described in the IP-One kit) is added to each well and the plates are incubated for 60 minutes in the dark. The plates are then read in a Perkin Elmer EnVision or equivalent reader able to measure FRET.

The mark [1] stands for this setting: HEK cells stably expressing human GPR40, Table 2, read-out: Human IP1.
Where [2] appears, read: HEK cells stably expressing human GPR40, Table 3, read-out: Human IP1 activity.

Structures are written as SMILES. Read-outs that look alike come from different tables or passages of the source.

human GPR40, sequence (O14842 whole entry): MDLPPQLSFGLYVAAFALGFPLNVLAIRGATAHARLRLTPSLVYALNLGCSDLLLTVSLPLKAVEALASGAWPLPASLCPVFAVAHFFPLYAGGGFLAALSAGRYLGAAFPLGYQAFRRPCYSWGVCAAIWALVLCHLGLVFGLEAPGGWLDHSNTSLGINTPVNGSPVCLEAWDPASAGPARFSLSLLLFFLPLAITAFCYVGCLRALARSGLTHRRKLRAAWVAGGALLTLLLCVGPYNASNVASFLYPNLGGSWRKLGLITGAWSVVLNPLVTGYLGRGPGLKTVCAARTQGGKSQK

Regarding `COc1ccc(F)c(-c2ccc(C3CCc4ccc([C@H](C5CC5)[C@H](C)C(=O)O)cc4O3)nc2C(OC)C(C)(C)C)c1` (single isomer, unassigned) [Example 135c], the EC50 under setting [1] stood at 2.8 nM.

Regarding `COc1ccc(F)c(-c2ccc(C3CCc4ccc([C@H](C5CC5)[C@H](C)C(=O)O)cc4O3)nc2C(OC)C(C)(C)C)c1` (single isomer, unassigned) [Example 135d], the EC50 under setting [1] was 44 nM.

Take `COc1ccc(F)c(-c2ccc(C3CCc4ccc(C(C)CC(=O)O)cc4O3)cc2)c1` (single isomer, unassigned) [Example 138, (S or R)-3-((R or S)-2-(2′-fluoro-5′-methoxy-[1,1′-biphenyl]-4-yl)chroman-7-yl)butanoic acid]: the EC50 under setting [1] came to 1200 nM.

`COc1ccc(F)c(-c2ccc(C3CCc4ccc(C(C)CC(=O)O)cc4O3)cc2)c1` (single isomer, unassigned) [Example 139]: the EC50 under setting [1] was found to be 116 nM.

As to `COc1ccc(F)c(-c2ccc(C3CCc4ccc(C(C)CC(=O)O)cc4O3)cc2)c1` (single isomer, unassigned) [Example 140], the EC50 under setting [1] is 1230 nM.

Turning to `COc1ccc(F)c(-c2ccc(C3CCc4ccc(C(C)CC(=O)O)cc4O3)cc2)c1` (single isomer, unassigned) [Example 141], the EC50 under setting [1] is 354 nM.

`COc1ccc(F)c(-c2ccc(C3CCc4ccc(C(C)C(C)C(=O)O)cc4O3)cc2)c1` (single isomer, unassigned) [Example 142]: the EC50 under setting [1] is 13 nM.

Turning to `COc1ccc(F)c(-c2ccc(C3CCc4ccc(C(C)C(C)C(=O)O)cc4O3)cc2)c1` (single isomer, unassigned) [Example 143], under setting [1], the EC50 turned out to be 252 nM.

As for `COc1ccc(F)c(-c2ccc(C3CCc4ccc(C(C)C(C)C(=O)O)cc4O3)cc2)c1` (single isomer, unassigned) [Example 144], the EC50 under setting [1] came to 1420 nM.

Turning to `COc1ccc(F)c(-c2ccc(C3CCc4ccc(C(C)C(C)C(=O)O)cc4O3)cc2)c1` (single isomer, unassigned) [Example 145], under setting [1], the EC50 was 77 nM.

`COc1ccc(F)c(-c2ccc(C3CCc4ccc(C(C)C(C)C(=O)O)cc4O3)cc2)c1` (single isomer, unassigned) [Example 146]: the EC50 under setting [1] came out at 270 nM.

Regarding `COc1ccc(F)c(-c2ccc(C3CCc4ccc(C(C)C(C)C(=O)O)cc4O3)cc2)c1` (single isomer, unassigned) [Example 147a], under setting [1], the EC50 worked out at 9 nM.

In the case of `COc1ccc(F)c(-c2ccc(C3CCc4ccc(C(C)C(C)C(=O)O)cc4O3)cc2)c1` (single isomer, unassigned) [Example 147b], under setting [1], the EC50 is 3180 nM.

For the compound `COc1ccc(F)c(-c2ccc(C3CCc4ccc(C(C)C(C)C(=O)O)cc4O3)cc2)c1` (single isomer, unassigned) [Example 147c], the EC50 under setting [1] turned out to be 138 nM.

For the compound `COc1ccc(F)c(-c2ccc(C3CCc4ccc([C@H](CC(=O)O)C5CCC5)cc4O3)cc2)c1` (single isomer, unassigned) [Example 148, (3R)-3-cyclobutyl-3-((R or S)-(2-(2′-fluoro-5′-methoxy-[1,1′-biphenyl]-4-yl)chroman-7-yl)propanoic acid], under setting [1], the EC50 came to 398 nM.

In the case of `COc1ccc(F)c(-c2ccc([C@H]3CCc4ccc([C@@H](CC(=O)O)C5CCC5)cc4O3)cc2)c1` (single isomer, unassigned) [Example 149, (3S)-3-cyclobutyl-3-((R or S)-(2-(2′-fluoro-5′-methoxy-[1,1′-biphenyl]-4-yl)chroman-7-yl)propanoic acid], the EC50 under setting [1] came out at 41 nM.

`COc1ccc(F)c(-c2ccc([C@H]3CCc4ccc([C@H](CC(=O)O)C5CCC5)cc4O3)cc2)c1` (single isomer, unassigned) [Example 150, (3R)-3-cyclobutyl-3-((R or S)-(2-(2′-fluoro-5′-methoxy-[1,1′-biphenyl]-4-yl)chroman-7-yl)propanoic acid]: under setting [1], the EC50 was 660 nM.

On to `COc1ccc(F)c(-c2ccc([C@@H]3CCc4ccc([C@@H](CC(=O)O)C5CCC5)cc4O3)cc2)c1` (single isomer, unassigned) [Example 151, (3S)-3-cyclobutyl-3-((R or S)-(2-(2′-fluoro-5′-methoxy-[1,1′-biphenyl]-4-yl)chroman-7-yl)propanoic acid], for which, under setting [1], the EC50 amounted to 79 nM.

For `COc1ccc(F)c(-c2ccc(C3CCc4ccc(C(C5CCC5)C(C)C(=O)O)cc4O3)cc2)c1` (single isomer, unassigned) [Example 152, (2S,3S)-3-cyclobutyl-3-((R or S)-2-(2′-fluoro-5′-methoxy-[1,1′-biphenyl]-4-yl)chroman-7-yl)-2-methylpropanoic acid], the EC50 under setting [1] turned out to be 774 nM.

In the case of `COc1ccc(F)c(-c2ccc(C3CCc4ccc(C(C5CCC5)C(C)C(=O)O)cc4O3)cc2)c1` (single isomer, unassigned) [Example 153], the EC50 under setting [1] stood at 22 nM.

For the compound `COc1ccc(F)c(-c2ccc(C3CCc4ccc(C(C5CCC5)C(C)C(=O)O)cc4O3)cc2)c1` (single isomer, unassigned) [Example 154], the EC50 under setting [1] came out at 86 nM.

For the compound `COc1ccc(F)c(-c2ccc(C3CCc4ccc(C(C5CCC5)C(C)C(=O)O)cc4O3)cc2)c1` (single isomer, unassigned) [Example 155], the EC50 under setting [1] came to 1 nM.

As to `COc1ccc(F)c(-c2ccc(C3CCc4ccc(C(C5CCC5)C(C)C(=O)O)cc4O3)cc2)c1` (single isomer, unassigned) [Example 156], the EC50 under setting [1] was 209 nM.

Consider `COc1ccc(F)c(-c2ccc(C3CCc4ccc(C(C5CCC5)C(C)C(=O)O)cc4O3)cc2)c1` (single isomer, unassigned) [Example 157], for which the EC50 under setting [1] came to 90 nM.

On to `COc1ccc(F)c(-c2ccc(C3CCc4ccc(C(C5CCC5)C(C)C(=O)O)cc4O3)cc2)c1` (single isomer, unassigned) [Example 158], for which the EC50 under setting [1] came out at 132 nM.

Take `COc1ccc(F)c(-c2ccc(C3CCc4ccc(C(C5CCC5)C(C)C(=O)O)cc4O3)cc2)c1` (single isomer, unassigned) [Example 159]: the EC50 under setting [1] was 1.8 nM.

Consider `COc1ccc(F)c(-c2ccc(C3COc4ccc([C@H](C5CC5)[C@H](C)C(=O)O)cc4O3)nc2)c1` (single isomer, unassigned) [Example 160], for which the EC50 under setting [2] worked out at 1.6 nM.

For the compound `COc1ccc(F)c(-c2ccc(C3COc4ccc([C@H](C5CC5)[C@H](C)C(=O)O)cc4O3)nc2)c1` (single isomer, unassigned) [Example 161], under setting [2], the EC50 came out at 2.2 nM.

Regarding `COc1ccc(F)c(-c2ccc(C3COc4ccc([C@@H](CC(=O)O)C5CC5)cc4O3)cc2)c1` (single isomer, unassigned) [Example 167], under setting [2], the EC50 was 31 nM.

With `COc1ccc(F)c(-c2ccc(C3COc4ccc([C@@H](CC(=O)O)C5CC5)cc4O3)cc2)c1` (single isomer, unassigned) [Example 168], the EC50 under setting [2] was found to be 120 nM.

As for `COc1ccc(F)c(-c2ccc(C3COc4ccc([C@H](C5CC5)[C@H](C)C(=O)O)cc4O3)cc2OC(F)(F)F)c1` (single isomer, unassigned) [Example 171], the EC50 under setting [2] stood at 2.6 nM.

Take `COc1ccc(F)c(-c2ccc(C3COc4ccc([C@H](C5CC5)[C@H](C)C(=O)O)cc4O3)cc2OC(F)(F)F)c1` (single isomer, unassigned) [Example 172]: the EC50 under setting [2] was determined as 6.9 nM.

As for `COc1ccc(F)c(-c2ccc(C3COc4ccc([C@H](C5CC5)[C@H](C)C(=O)O)cc4O3)cc2)c1` (single isomer, unassigned) [Example 173], the EC50 under setting [2] turned out to be 1.8 nM.

On to `COc1ccc(F)c(-c2ccc(C3COc4ccc([C@H](C5CC5)[C@H](C)C(=O)O)cc4O3)cc2)c1` (single isomer, unassigned) [Example 174], for which the EC50 under setting [2] was found to be 0.5 nM.

On to `CC#C[C@@H](CC(=O)O)c1ccc2c(c1)OCC(c1ccc(-c3cc(OC)ccc3F)cc1)O2` (single isomer, unassigned) [Example 176], for which the EC50 under setting [2] worked out at 774 nM.

On to `CC#C[C@@H](CC(=O)O)c1ccc2c(c1)OCC(c1ccc(-c3cc(OC)ccc3F)cc1)O2` (single isomer, unassigned) [Example 177], for which the EC50 under setting [2] turned out to be 870 nM.

As to `COc1ccc(F)c(-c2ccc(C3COc4ccc([C@H](C5CC5)[C@H](C)C(=O)O)c(F)c4O3)cc2)c1` (single isomer, unassigned) [Example 185], the EC50 under setting [2] turned out to be 2 nM.

Consider `COc1ccc(F)c(-c2ccc(C3COc4ccc([C@H](C5CC5)[C@H](C)C(=O)O)c(F)c4O3)cc2)c1` (single isomer, unassigned) [Example 186], for which the EC50 under setting [2] worked out at 7.9 nM.

Regarding `C[C@H](C(=O)O)[C@H](c1ccc2c(c1)OC(C1CN(Cc3cc(C(F)(F)F)ccc3C(F)(F)F)C1)CO2)C1CC1` (single isomer, unassigned) [Example 187], under setting [2], the EC50 amounted to 1280 nM.

As for `C[C@H](C(=O)O)[C@H](c1ccc2c(c1)OC(C1CN(Cc3cc(C(F)(F)F)ccc3C(F)(F)F)C1)CO2)C1CC1` (single isomer, unassigned) [Example 188], the EC50 under setting [2] worked out at 5.2 nM.

Regarding `COc1ccc(F)c(-c2ccc(C3CCc4ccc([C@@H](CC(=O)O)C5CC5)cc4O3)cc2)c1` (stereo partly drawn) [Example 60, (3S)-3-cyclopropyl-3-(2-(2′-fluoro-5′-methoxy-[1,1′-biphenyl]-4-yl)chroman-7-yl)propanoic acid], under setting [1], the EC50 was found to be 25 nM.

For the compound `COc1cc(-c2ccc(C3CCc4ccc([C@@H](CC(=O)O)C5CC5)cc4O3)cc2)c(F)cn1` (stereo partly drawn) [Example 71], the EC50 under setting [1] stood at 11 nM.

(Values after patent publication US9840512B2, “Antidiabetic bicyclic compounds” (Merck Sharp & Dohme Corp., priority 2013, dated 2017).)
